Reference: patent US20250242340A1, “SABRE CATALYSTS CONTAINING FLUORINATED CARBON CHAINS FOR DELIVERY OF METAL-FREE MRI CONTRAST AGENTS” (The United States of America, as represented by the …, priority 2022, published 2025)
Read-outs that look alike come from different tables or passages of the source.

Assays:
[1] = type: physicochemical
Description: Parahydrogen was generated using a Gas-Delivery Manifold. Ultra-high-purity hydrogen gas (Airgas) was fed into a ParaHydrogen flow cryostat (Xeus technology LTD) and enriched to about 50% parahydrogen in the presence of a spin-exchange catalyst (Fe2O3) at liquid nitrogen temperature (77K). […] The entire pH2 line was pressurized to 100 psi.
The magnetic shield condition was as follows. […] The shield was degaussed using internal homebuilt coils driven by a Variac when necessary.
MR experiments were performed using a 1 T Magritek Spinsolve benchtop NMR spectrometer.
FIG. 6 depicts, in the top curve, a single-scan HP ^13C spectrum obtained for the hyperpolarized probe. […] Enhancement is ε˜9000 and polarization is about P(^13C)˜1%.
All experiments were performed with the solution containing fluorinated catalyst, co-ligand (phenyl trifluoromethyl sulfoxide) and [1-^13C]Pyruvate in 0.6 mL CD3OD. The ratio and concentration can be further adjusted to attain better enhancement and polarization. […] The experiments were performed at room temperature, ˜100 scc/m p-H2 flow rate and 96 PSI p-H2 overpressure. The parahydrogen used in this example came from a low-cost 50% p-H2 generator. Each experiment, the p-H2 bubbling was applied for ˜1 min, the sample was quickly transferred to the 1 T NMR spectrometer for detection and the sample was then returned to the mu-metal shield to continue p-H2 bubbling for the next experiment.

[2] = Relaxation dynamics of hyperpolarized [1-13C]pyruvate in methanol (Example 7); type: physicochemical
Description: (§1) In addition, the relaxation dynamics of the [1-^13C]pyruvate were also studied.
In addition, relaxation dynamics at earth field and 1.8 T are about the same as a non-fluorinated SABRE catalyst T1=28.9±1.6 s and 66.5±7 s, respectively.

[3] = Isolation of hyperpolarized pyruvate by D2O precipitation of the catalyst and filtration (Example 8); type: physicochemical; conditions: 20% v/v D2O added, Oasis Prime HLB filter, 1.8 T NMR, procedure about 1.15 to 1.30 minutes
Experimental: The parahydrogen flow rate was established at 90 scc/m and pressurized to 8 bars, the mixing field was 0.4 μT, and the temperature was 0° C.
After the hyperpolarization procedure was completed, the sample was rapidly removed from the 0.40 μT field, depressurized, and 20% in volume (125 μL) of D2O was added to the solution to precipitate the perfluorinated SABRE catalyst.

[4] = Precipitation of HP pyruvate with ethyl acetate and reconstitution in D2O (Example 9); type: physicochemical; conditions: after EtOAc precipitation and reconstitution in water (D2O); 7.5 mM fluorinated catalyst, 50 mM DMSO, 20-30 mM pyruvate, 1.8 T
Experimental: Precipitation and redissolution of HP [1-^13C]pyruvate, which takes place in the same NMR tube where hyperpolarization, was performed (Schmidt et al., ACS Sensors, 7(11), 3430-3439 (2022)). The SABRE samples were prepared in CD3OD, using between 20 and 30 mM sodium [1-^13C]pyruvate, 7.5 mM fluorinated SABRE catalyst, and 50 mM dimethyl sulfoxide (DMSO), as described in Examples 6 and 7. 100 μL of this solution was transferred into 5 mm NMR tube and exposed to the SABRE-SHEATH hyperpolarization conditions with the same set-up and optimum conditions described in Examples 6 and 7. The solution was located inside a 3-layer mu-metal of 3″ I.D. and 9″ depth to shield external magnetic fields, combined with a custom-made solenoid to generate a static magnetic field B0 of 0.4 μT. The NMR tubes were pressurized (110 psi, i.e., approximately 8 bar total pressure) with p-H2 bubbling through the solution at a flow of 90 scc/m to activate the catalyst and to ^13C-hyperpolarize the sodium [1-^13C]pyruvate solution. Activation of the catalyst took place for 15 min at ambient temperature and magnetic field. For polarization build-up, the sample was placed in the static magnetic field (typically about 0.4 μT) and a water bath to regulate the reaction temperature at 0° C. After polarization, the NMR tube was rapidly transferred inside the NMR spectrometer at 1.8 T and kept at room temperature. […]

[5] = type: physicochemical; conditions: 40 mM sodium [1-13C]pyruvate, 6.6 mM catalyst of Example 16, 50 mM DMSO, CD3OD, 0.4 μT, 5 °C, 110 psi, 90 scc/m, 1.8 T
Experimental: (§2) The SABRE samples were prepared in CD3OD, using 40 mM sodium [1-^13C]pyruvate, 6.6 mM perfluorinated SABRE catalyst of Example 16, and 50 mM dimethyl sulfoxide (DMSO), as described in Examples 6 and 7. The SABRE samples were exposed to the SABRE-SHEATH hyperpolarization conditions with the same set-up and optimum conditions described in Examples 6 and 7. The NMR tubes were pressurized (110 psi, i.e., approximately 8 bar total pressure) with p-H2 bubbling through the solution at a flow of 90 scc/m to activate the catalyst and to ^13C-hyperpolarize the sodium [1-^13C]pyruvate solution. Activation of the catalyst took place for about 15 minutes at ambient temperature and magnetic field. For polarization build-up, the sample was placed in the magnetic field (typically about 0.4 μT) and a water bath at 5° C. to regulate the reaction temperature. The spectrum was acquired immediately following manual sample transfer to a 1.8 T benchtop NMR after 5 seconds, and the results are set forth in the top spectrum of FIG. 16.

[6] = type: physicochemical; conditions: 20 mM sodium [1-13C]pyruvate, 7.6 mM catalyst shown in Scheme 4, 50 mM DMSO, CD3OD, 0.4 μT, 5 °C, 110 psi, 90 scc/m, 1.8 T
Experimental: as §2, with “20” for “40”, “7.6” for “6.6”, “shown in Scheme 4,” for “of Example 16,”, “17.” for “16.”

[7] = type: physicochemical; conditions: 23 mM sodium [1-13C]pyruvate, 7.4 mM catalyst of Example 4, 46 mM DMSO, 0.2 mL NFBME + 0.2 mL MeOD, 90 scc/m, 110 PSI, 0.4 μT, 0 °C
[8] = Relaxation dynamics of hyperpolarized [1-13C]pyruvate in fluorous mixture (Example 25); type: physicochemical; conditions: fluorous mixture NFBME/MeOD
Description: as §1
In addition, relaxation dynamics at earth field and 1.8 T are about the same as a non-fluorinated SABRE catalyst T1=9.0±1.9 s and 16.0±1.4 s, respectively.

[9] = Biphasic extraction of hyperpolarized pyruvate into D2O from NFBME/MeOD (Example 26); type: physicochemical; conditions: after addition of 400 μL D2O to NFBME/MeOD sample (emulsion, bound and free pyruvate), catalyst of Example 4, 1.8 T, room temperature
Experimental: The hyperpolarization procedure of Example 6 was repeated using a mixture of nonafluorobutyl methyl ether (NFBME) and deuterated methanol instead of only deuterated methanol.
After the hyperpolarization procedure was completed, the sample was rapidly removed from the 0.40 μT field and transferred inside the NMR spectrometer at 1.8 T at room temperature. The NMR sample was depressurized and 400 μL of D2O was added to the solution in order to drive the hyperpolarized sodium [1-^13C]pyruvate into the aqueous phase.

[10] = Re-use of the fluorous catalyst mixture for pyruvate hyperpolarization (Example 26); type: physicochemical; conditions: re-used catalyst mixture from 4 days earlier, fresh 23 mM pyruvate and 47 mM DMSO in 0.2 mL CD3OD
Description: The fluorous mixture containing the perfluorinated SABRE catalyst in NFBME and MeOD was re-used for further sodium [1-^13C]pyruvate hyperpolarization.

[11] = Example 5 text: 8 mM fluorinated catalyst (Example 4), 16 mM PTFSO, 30 mM [1-13C]pyruvate, 0.6 mL CD3OD, room temperature, ~100 scc/m, 96 PSI, 50% p-H2, 1 T NMR
[12] = FIG. 6 legend: 30 mM sodium [1-13C]pyruvate, 42 mM PTFSO, 7.8 mM Ir-F-IMes, deuterated methanol, 55 s 50% p-H2 bubbling, BT=−0.7 μT, 1 T NMR

CC(=O)C(=O)O [[1-^13C]pyruvate, Sodium [1-^13C]-pyruvate]
13C signal enhancement ε [1, 11]: ~9000 | polarization P(13C) [1, 11]: ~1% | 13C signal enhancement ε [1, 12]: ~1250 | polarization P(13C) [1, 12]: ~0.1% | T1 ([2]; catalyst of Example 4, 1.8 T): 66.5 ± 7 s | T1 ([2]; catalyst of Example 4, Earth's field): 28.9 ± 1.6 s | T1 ([2]; catalyst of Example 4, relaxation at 0.4 μT): 16.1 ± 0.9 s | HP 13C signal after catalyst precipitation and filtration [3]: no HP ^13C signal was observed in any sample | 13C signal enhancement ε [4]: ~9000 fold | P13C [4]: ~2.17% | 13C signal enhancement ε [5]: ~16900 fold | P13C [5]: ~2.17% | 13C signal enhancement ε [6]: ~19000 fold | P13C [6]: ~4.91% | 13C signal enhancement ε [7]: ~38600 fold | P13C [7]: ~6.02% | T1 ([8]; 1.8 T): 16.0 ± 1.4 s | T1 ([8]; relaxation at 0.4 μT): 11.3 ± 1.3 s | 13C signal enhancement ε [9]: ~10800 fold | P13C [9]: ~1.68% | 13C signal enhancement ε [10]: ~3090 fold | P13C [10]: ~0.48%
